Source: article PMC11676982, “Heterotropic Activation of Cytochrome P450 3A4 by Perillyl Alcohol” (Pharmaceutics, 2024)
Read-outs that look alike come from different tables or passages of the source.

Assays:
CYP2A6 [1] = target: T1, CYP2A6 (Homo sapiens, UniProt P11509); experiment: Metabolism-dependent inhibition assay (IC50 shift) in pooled HLMs, CYP2A6; conditions: substrate coumarin; for IC50: CYP2A6, pooled HLMs, 95% CI in parentheses
T1 sequence (P11509 1-494): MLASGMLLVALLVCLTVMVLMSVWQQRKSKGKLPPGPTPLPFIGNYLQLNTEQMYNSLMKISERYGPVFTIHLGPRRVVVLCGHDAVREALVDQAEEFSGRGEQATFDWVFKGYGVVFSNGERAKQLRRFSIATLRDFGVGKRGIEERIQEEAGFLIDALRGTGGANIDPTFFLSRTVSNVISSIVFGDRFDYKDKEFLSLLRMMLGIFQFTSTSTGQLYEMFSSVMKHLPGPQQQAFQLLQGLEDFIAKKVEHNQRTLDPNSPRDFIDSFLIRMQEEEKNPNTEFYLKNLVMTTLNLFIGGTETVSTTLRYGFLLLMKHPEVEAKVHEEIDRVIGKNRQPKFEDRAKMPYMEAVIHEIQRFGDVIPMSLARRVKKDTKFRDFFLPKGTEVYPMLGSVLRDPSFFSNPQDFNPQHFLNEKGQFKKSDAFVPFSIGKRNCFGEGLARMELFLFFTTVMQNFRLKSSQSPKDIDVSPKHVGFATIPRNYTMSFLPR
Method: (§1) The experiments for determining metabolism-dependent inhibition were conducted utilizing a non-dilution method. […] The pre-incubation was initiated by the addition of 1 mM NADPH and incubation for 30 min. Subsequently, final incubation was performed with the addition of a substrate (5 μM coumarin or 50 μM bupropion) in the presence of NADPH for 10 min; the total volume of the mixture was 200 μL. […] Mixtures were subjected to centrifugation at 3000× g for 20 min at 4 °C, and the supernatants were analyzed using LC-MS/MS. The experiment was performed using three separate samples.
(§2) The CYP-mediated activities in the presence of test substances were expressed as percentages of the corresponding control values.

CYP2B6 [2] = target: T2, CYP2B6 (Homo sapiens, UniProt P20813); experiment: Metabolism-dependent inhibition assay (IC50 shift) in pooled HLMs, CYP2B6; conditions: substrate bupropion; for IC50: CYP2B6, pooled HLMs, 95% CI in parentheses
T2 sequence (P20813 1-491): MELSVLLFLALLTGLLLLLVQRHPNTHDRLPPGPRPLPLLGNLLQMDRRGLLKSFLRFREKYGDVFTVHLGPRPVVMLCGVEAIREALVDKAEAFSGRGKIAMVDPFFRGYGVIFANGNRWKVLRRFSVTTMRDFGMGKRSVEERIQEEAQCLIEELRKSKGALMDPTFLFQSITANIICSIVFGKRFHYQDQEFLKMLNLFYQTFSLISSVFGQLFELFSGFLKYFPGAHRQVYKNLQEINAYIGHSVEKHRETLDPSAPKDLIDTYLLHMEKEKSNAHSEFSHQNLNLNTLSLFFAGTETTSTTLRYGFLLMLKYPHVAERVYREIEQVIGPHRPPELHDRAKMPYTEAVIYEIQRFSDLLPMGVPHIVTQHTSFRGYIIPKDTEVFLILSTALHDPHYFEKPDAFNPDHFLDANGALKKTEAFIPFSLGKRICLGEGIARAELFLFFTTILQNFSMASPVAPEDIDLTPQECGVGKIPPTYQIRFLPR
Method: as §1, §2

CYP3A4 [3] = target: T3, CYP3A4 (Homo sapiens, UniProt P08684); experiment: Kinetic parameters of MDZ hydroxylation in pooled HLMs in the presence of (−)-POH; type: in vitro ADME; conditions: 100 μM (−)-POH
Method: The supernatants obtained after centrifuging at 3000× g for 20 min at 4 °C were injected into LC-MS/MS for analysis. The experiment was performed using four separate samples.
Kinetic parameters were estimated using GraphPad Prism to plot activities against the log of MDZ concentration in the presence of (–)-POH.

CYP3A4 [4] = target: T3, CYP3A4; experiment: Effect of POH on the metabolism of other CYP3A4 substrates in pooled HLMs; type: in vitro ADME; conditions: (−)-POH 3.2–100 μM, substrates near Km
Method: The substrates were applied at a concentration that approximated their Km values. The reactions were preincubated for 5 min before being initiated with the addition of 1 mM NADPH. After 10 min incubation, reactions containing atorvastatin, buspirone, FMS, or nifedipine were terminated by the addition of 200 μL of ice-cold acetonitrile with 100 nM carbamazepine as an internal standard. For terminating reactions with donepezil or tadalafil, 200 μL of ice-cold methanol containing 0.5% (v/v) formic acid and 1 μM carbamazepine as internal standard was added to samples. […] The experiment was performed using three separate samples.

CYP2C9 [5] = target: T4, CYP2C9 (Homo sapiens, UniProt P11712); conditions: microsomes, 10 min, 50 μM, pH 7.4
CYP3A4 [6] = target: T3, CYP3A4
Method: To assess the effect of POH on the kinetics of the formation of 1′-hydroxymidazolam (1′-OH-MDZ) and 4-hydroxymidazolam (4-OH-MDZ), 5 μM MDZ was incubated with POH (0–100 μM) in hHOs for 24 h at 37 °C in a CO2 incubator. Samples were incubated in 24-well culture plates, with each well containing a total volume of 0.7 mL. At 2, 4, 6, and 24 h, 70 μL of medium was sampled, and reaction termination was achieved by adding an equal volume of ice-cold acetonitrile containing 100 nM carbamazepine as an internal standard. The supernatants were analyzed using LC-MS/MS after centrifugation at 10,000× g for 10 min at 4 °C. […] Data were normalized for protein concentrations measured using the Pierce™ BCA Protein Assay Kit (Thermo Fisher Scientific, Waltham, MA, USA) following the manufacturer’s instructions. The experiment was performed using four separate samples.

CYP2A6 [7] = target: T1, CYP2A6; experiment: biochemical
Method: A 5 min pre-incubation was performed prior to initiating reactions with the addition of 1 mM NADPH. After incubation at 37 °C for 10 min, 200 μL of ice-cold acetonitrile containing 100 nM carbamazepine as an internal standard was added to terminate the reaction. The samples were agitated and centrifuged at 4 °C for 20 min at 3000× g. The supernatants were transferred to a 96-well plate for LC-MS/MS analysis. The experiment was performed using three separate samples.
Data acquired from the evaluation of enzyme inhibition using various concentrations of substrates and test compounds were fit to different models (competitive, noncompetitive, uncompetitive, or mixed), and inhibition constant (Ki) and goodness of fit values were obtained using GraphPad Prism. The appropriate type of inhibition was selected based on statistical goodness of fit tests including Akaike’s information criterion (AICc) with correction for small sample size and the standard deviation of the residuals (Sy.x).

CYP2B6 [8] = target: T2, CYP2B6; experiment: Direct CYP inhibition assay in pooled HLMs, CYP2B6 (bupropion)
CYP2C9 [9] = target: T4, CYP2C9; experiment: Direct CYP inhibition assay in pooled HLMs, CYP2C9 (tolbutamide)
CYP2C19 = CYP2C19 (Homo sapiens, UniProt P33261); experiment: Direct CYP inhibition assay in pooled HLMs, CYP2C19 (S-mephenytoin)
[10] = IC50, pre-incubation with NADPH, 30 min pre-incubation with NADPH
[11] = IC50, pre-incubation without NADPH, 30 min pre-incubation without NADPH
[12] = IC50 without NADPH/IC50 with NADPH

T3 sequence (P08684 whole entry): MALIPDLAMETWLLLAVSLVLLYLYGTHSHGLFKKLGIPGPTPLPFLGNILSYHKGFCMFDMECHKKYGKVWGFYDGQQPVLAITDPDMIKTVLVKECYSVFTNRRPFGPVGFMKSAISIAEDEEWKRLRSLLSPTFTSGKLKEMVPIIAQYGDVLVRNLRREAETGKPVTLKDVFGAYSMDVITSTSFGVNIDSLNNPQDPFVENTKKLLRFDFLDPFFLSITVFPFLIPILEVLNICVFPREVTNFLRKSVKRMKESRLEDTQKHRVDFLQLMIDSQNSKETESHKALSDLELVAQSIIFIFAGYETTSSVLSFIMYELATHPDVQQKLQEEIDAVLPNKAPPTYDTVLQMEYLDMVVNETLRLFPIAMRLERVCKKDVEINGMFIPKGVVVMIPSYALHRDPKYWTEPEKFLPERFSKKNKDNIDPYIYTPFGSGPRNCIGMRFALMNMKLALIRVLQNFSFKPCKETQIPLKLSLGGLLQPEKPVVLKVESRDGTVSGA
T4 sequence (P11712 whole entry): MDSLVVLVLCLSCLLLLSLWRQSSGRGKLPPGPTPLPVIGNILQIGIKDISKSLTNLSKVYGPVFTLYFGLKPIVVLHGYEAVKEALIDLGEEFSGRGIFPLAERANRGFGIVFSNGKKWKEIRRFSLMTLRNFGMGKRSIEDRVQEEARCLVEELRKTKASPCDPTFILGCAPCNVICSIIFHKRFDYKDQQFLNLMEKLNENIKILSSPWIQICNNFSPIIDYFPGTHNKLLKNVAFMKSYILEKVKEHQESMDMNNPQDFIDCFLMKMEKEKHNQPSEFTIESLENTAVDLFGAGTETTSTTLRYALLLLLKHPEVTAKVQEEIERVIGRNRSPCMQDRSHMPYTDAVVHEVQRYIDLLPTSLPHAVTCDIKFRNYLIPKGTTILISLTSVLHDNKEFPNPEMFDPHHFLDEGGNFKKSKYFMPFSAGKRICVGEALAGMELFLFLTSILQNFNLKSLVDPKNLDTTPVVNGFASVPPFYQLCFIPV
Sequence of CYP2C19 (P33261 whole entry): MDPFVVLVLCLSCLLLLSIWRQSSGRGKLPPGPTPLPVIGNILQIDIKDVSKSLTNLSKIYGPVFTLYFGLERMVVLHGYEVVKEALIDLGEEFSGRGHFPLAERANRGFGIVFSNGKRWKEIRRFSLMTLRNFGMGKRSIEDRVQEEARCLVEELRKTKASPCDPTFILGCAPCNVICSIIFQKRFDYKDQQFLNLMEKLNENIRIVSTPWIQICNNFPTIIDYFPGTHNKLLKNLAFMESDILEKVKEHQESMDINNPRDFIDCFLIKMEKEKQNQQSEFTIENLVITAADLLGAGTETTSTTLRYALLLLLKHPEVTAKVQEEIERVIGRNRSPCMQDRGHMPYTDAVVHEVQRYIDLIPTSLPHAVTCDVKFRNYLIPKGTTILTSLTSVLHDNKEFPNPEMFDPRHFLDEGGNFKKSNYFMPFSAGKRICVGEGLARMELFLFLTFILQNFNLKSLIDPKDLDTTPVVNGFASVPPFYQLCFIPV

SMILES: C=C(C)[C@@H]1CC=C(CO)CC1 [(−)-POH, (−)-perillyl alcohol]
- IC50 (CYP2A6 [1]; [10]): 23.4 µM
- IC50 (CYP2A6 [1]; [11]): 24.3 µM
- IC50 fold-shift, CYP2A6 (CYP2A6 [1]; [12]): 1.04
- IC50 (CYP2B6 [2]; [10]): 13.4 µM
- IC50 (CYP2B6 [2]; [11]): 13.7 µM
- IC50 fold-shift, CYP2B6 (CYP2B6 [2]; [12]): 1.02
- Increase of Vmax/Km value of MDZ 1′-hydroxylation compared with absence of (−)-POH (CYP3A4 [3]): 2.67 fold
- Increase of Vmax/Km value of MDZ 1′-hydroxylation compared with absence of (−)-POH (CYP3A4 [3]; listed as POH): 2.7 fold
- Effect on CYP3A4-mediated metabolism of atorvastatin, buspirone, donepezil, nifedipine, and tadalafil (CYP3A4 [4]): did not significantly affect
- CYP2C9 activity, % of the control level (CYP2C9 [5]): 64.2%
- Rate of 1′-OH-MDZ formation in hHOs (CYP3A4 [6]; 2.5 μM): 1.86 (1.64–2.07) pmol/h/mg protein
- Rate of 1′-OH-MDZ formation in hHOs (CYP3A4 [6]; 10 μM): 2.04 (1.88–2.20) pmol/h/mg protein
- Rate of 1′-OH-MDZ formation in hHOs (CYP3A4 [6]; 25 μM): 2.34 (2.18–2.49) pmol/h/mg protein
- Rate of 1′-OH-MDZ formation in hHOs (CYP3A4 [6]; 50 μM): 3.21 (2.93–3.48) pmol/h/mg protein
- Formation rate of 4-OH-MDZ in hHOs (CYP3A4 [6]; 100 μM): 0.159 ± 0.016 pmol/h/mg protein
- Increase of the rate of 1′-OH-MDZ formation compared with absence of (−)-POH (CYP3A4 [6]; 100 μM): 2.05 fold
- Ki (CYP2A6 [7]): 6.35 µM
- IC50 (CYP2B6 [8]): 6.99 µM
- IC50 (CYP2C9 [9]): > 50 µM
- IC50 (CYP2C19): > 50 µM
